This note sets out measurements from BindingDB's records for doi:10.1021/jm000541z (Abbott Laboratories, 2001).

In this experiment the target is Alpha-1B adrenergic receptor (Mesocricetus auratus) (UniProt P18841). Description: Binding affinity to hamster alpha-1B adrenergic receptor.
Chain of Alpha-1B adrenergic receptor (Mesocricetus auratus) (P18841 whole entry, looked up): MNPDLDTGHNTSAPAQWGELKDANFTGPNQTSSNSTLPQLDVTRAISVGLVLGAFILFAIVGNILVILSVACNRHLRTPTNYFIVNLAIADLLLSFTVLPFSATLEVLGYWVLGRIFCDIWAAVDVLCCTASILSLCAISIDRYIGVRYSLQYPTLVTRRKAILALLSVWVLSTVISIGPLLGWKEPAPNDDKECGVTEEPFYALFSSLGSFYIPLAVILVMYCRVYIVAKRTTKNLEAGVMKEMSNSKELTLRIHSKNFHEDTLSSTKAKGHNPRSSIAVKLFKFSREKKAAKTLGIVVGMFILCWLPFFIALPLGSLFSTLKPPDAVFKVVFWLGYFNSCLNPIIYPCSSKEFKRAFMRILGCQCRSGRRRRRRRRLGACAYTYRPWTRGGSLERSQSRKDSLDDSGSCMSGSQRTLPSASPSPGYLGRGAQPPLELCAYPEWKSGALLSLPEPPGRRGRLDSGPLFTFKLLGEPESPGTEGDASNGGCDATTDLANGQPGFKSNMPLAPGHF

With `COC(=O)c1ccc2c(=O)n(CCN3C[C@@H]4CCc5c(OC)cccc5[C@@H]4C3)c(=O)[nH]c2c1` [3-[2-(6-Methoxy-1,3,3a,4,5,9b-hexahydro-benzo[e]isoindol-2-yl)-ethyl]-2,4-dioxo-1,2,3,4-tetrahydro-quinazoline-7-carboxylic acid methyl ester], the Ki is 1.64 nM. As for `COc1cccc2c1CC[C@H]1CN(CCn3c(=O)[nH]c4ccsc4c3=O)C[C@@H]21` [3-[2-(6-Methoxy-1,3,3a,4,5,9b-hexahydro-benzo[e]isoindol-2-yl)-ethyl]-1H-thieno[3,2-d]pyrimidine-2,4-dione], the figure is 1.63 nM; as for `COc1cccc2c1CC[C@H]1CN(CCn3c(=O)[nH]c4cc(NC(C)=O)ccc4c3=O)C[C@@H]21` [N-{3-[2-(6-Methoxy-1,3,3a,4,5,9b-hexahydro-benzo[e]isoindol-2-yl)-ethyl]-2,4-dioxo-1,2,3,4-tetrahydro-quinazolin-7-yl}-acetamide], 0.84 nM. As for `COc1cccc2c1CC[C@H]1CN(CCn3c(=O)[nH]c4nccnc4c3=O)C[C@@H]21` [3-[2-(6-Methoxy-1,3,3a,4,5,9b-hexahydro-benzo[e]isoindol-2-yl)-ethyl]-1H-pteridine-2,4-dione], the Ki came to 12.6 nM. The compound `COc1cccc2c1CC[C@H]1CN(CCn3c(=O)[nH]c4cc(C)c(C)cc4c3=O)C[C@@H]21` [3-[2-(6-Methoxy-1,3,3a,4,5,9b-hexahydro-benzo[e]isoindol-2-yl)-ethyl]-6,7-dimethyl-1H-quinazoline-2,4-dione] yielded a Ki of 4.07 nM.

Compound `COc1cccc2c1CC[C@H]1CN(CCn3c(=O)[nH]c4c(C)cc(C)cc4c3=O)C[C@@H]21` [3-[2-(6-Methoxy-1,3,3a,4,5,9b-hexahydro-benzo[e]isoindol-2-yl)-ethyl]-6,8-dimethyl-1H-quinazoline-2,4-dione] showed a Ki of 16.3 nM. Consider `COc1cc2c(cc1OC)C(=O)N(CCN1C[C@@H]3CCc4c(OC)cccc4[C@@H]3C1)CN2` [6,7-Dimethoxy-3-[2-(6-methoxy-1,3,3a,4,5,9b-hexahydro-benzo[e]isoindol-2-yl)-ethyl]-2,3-dihydro-1H-quinazolin-4-one], for which the Ki worked out at 95.2 nM.

Take `COc1cccc2c1CC[C@H]1CN(CCn3c(=O)[nH]c4cc(Cl)ccc4c3=O)C[C@@H]21` [7-Chloro-3-[2-(6-methoxy-1,3,3a,4,5,9b-hexahydro-benzo[e]isoindol-2-yl)-ethyl]-1H-quinazoline-2,4-dione]: the Ki came out at 2.71 nM. For the compound `COc1cc2[nH]c(=O)n(CCN3C[C@@H]4CCc5c(OC)cccc5[C@@H]4C3)c(=O)c2cc1OC` [6,7-Dimethoxy-3-[2-(6-methoxy-1,3,3a,4,5,9b-hexahydro-benzo[e]isoindol-2-yl)-ethyl]-1H-quinazoline-2,4-dione], the Ki was 6.46 nM. `COc1cccc2c1CC[C@H]1CN(CCn3c(=O)[nH]c4c(C(C)C)c(OC)sc4c3=O)C[C@@H]21` [7-Isopropyl-6-methoxy-3-[2-(6-methoxy-1,3,3a,4,5,9b-hexahydro-benzo[e]isoindol-2-yl)-ethyl]-1H-thieno[3,2-d]pyrimidine-2,4-dione] gave a Ki of 2.31 nM.

In turn, `COc1cccc2c1CC[C@H]1CN(CCn3c(=O)[nH]c4c(C)c(C)ccc4c3=O)C[C@@H]21` [3-[2-(6-Methoxy-1,3,3a,4,5,9b-hexahydro-benzo[e]isoindol-2-yl)-ethyl]-7,8-dimethyl-1H-quinazoline-2,4-dione] showed a Ki of 1.32 nM. `COc1ccc2c(=O)n(CCN3C[C@@H]4CCc5c(OC)cccc5[C@@H]4C3)c(=O)[nH]c2c1` [7-Methoxy-3-[2-(6-methoxy-1,3,3a,4,5,9b-hexahydro-benzo[e]isoindol-2-yl)-ethyl]-1H-quinazoline-2,4-dione]: the Ki was 0.66 nM. Regarding `COc1cccc2c1CC[C@H]1CN(CCn3c(=O)[nH]c4cccnc4c3=O)C[C@@H]21` [3-[2-(6-Methoxy-1,3,3a,4,5,9b-hexahydro-benzo[e]isoindol-2-yl)-ethyl]-1H-pyrido[3,2-d]pyrimidine-2,4-dione], the Ki is 8.2 nM.

The Ki is a measure of affinity in units of concentration, obtained from inhibition or displacement. A higher Ki goes with lower affinity.
